Measured values taken from PubChem BioAssay (NCI).
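1) Cells in 96-well plates. 2) Compound, 48 h, 5 concentrations. 3) Linear interpolation between surrounding doses. 4) Unreached endpoint = highest concentration. Abbreviation: GI50, concentration required for 50% inhibition of growth. Definition used: TGI = concentration required for complete inhibition of growth.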

Key:
Test in all cases: NCI-60 cell line screen, 48 h; in the data active = GI50 below about 0.43 µM; inactive = the rest
UACC-257 melanoma = tested on: UACC-257 melanoma
SF-268 CNS = tested on: SF-268 CNS
CAKI-1 renal = tested on: CAKI-1 renal
COLO 205 colon = tested on: COLO 205 colon
NCI/ADR-RES ovarian = tested on: NCI/ADR-RES ovarian
NCI-H226 lung = tested on: NCI-H226 lung
SW-620 colon = tested on: SW-620 colon
OVCAR-3 ovarian = tested on: OVCAR-3 ovarian
LOX IMVI melanoma = tested on: LOX IMVI melanoma
MOLT-4 leukemia = tested on: MOLT-4 leukemia
BT-549 breast = tested on: BT-549 breast
NCI-H460 lung = tested on: NCI-H460 lung
U251 CNS = tested on: U251 CNS
RXF 393 renal = tested on: RXF 393 renal
NCI-H23 lung = tested on: NCI-H23 lung
EKVX NSCLC = tested on: EKVX NSCLC
SK-MEL-2 melanoma = tested on: SK-MEL-2 melanoma
RPMI-8226 leukemia = tested on: RPMI-8226 leukemia
KM12 colon = tested on: KM12 colon
SK-MEL-5 melanoma = tested on: SK-MEL-5 melanoma
UO-31 renal = tested on: UO-31 renal
OVCAR-4 ovarian = tested on: OVCAR-4 ovarian
CCRF-CEM leukemia = tested on: CCRF-CEM leukemia
PC-3 prostate = tested on: PC-3 prostate
TK-10 renal = tested on: TK-10 renal
SNB-19 CNS = tested on: SNB-19 CNS
DU-145 prostate = tested on: DU-145 prostate
MDA-MB-231 breast = tested on: MDA-MB-231 breast
SF-295 CNS = tested on: SF-295 CNS
M14 melanoma = tested on: M14 melanoma
SK-MEL-28 melanoma = tested on: SK-MEL-28 melanoma
HCC-2998 colon = tested on: HCC-2998 colon
HS 578T breast = tested on: HS 578T breast
A498 renal = tested on: A498 renal
786-0 renal = tested on: 786-0 renal
K-562 leukemia = tested on: K-562 leukemia
SF-539 CNS = tested on: SF-539 CNS
OVCAR-5 ovarian = tested on: OVCAR-5 ovarian
MALME-3M melanoma = tested on: MALME-3M melanoma
SN12C renal = tested on: SN12C renal
OVCAR-8 ovarian = tested on: OVCAR-8 ovarian
A549 NSCLC = tested on: A549 NSCLC
HOP-62 NSCLC = tested on: HOP-62 NSCLC
UACC-62 melanoma = tested on: UACC-62 melanoma
SNB-75 CNS = tested on: SNB-75 CNS
IGROV1 ovarian = tested on: IGROV1 ovarian
NCI-H522 lung = tested on: NCI-H522 lung
T-47D breast = tested on: T-47D breast
HCT-15 colon = tested on: HCT-15 colon
HCT-116 colon = tested on: HCT-116 colon
HOP-92 NSCLC = tested on: HOP-92 NSCLC
MCF7 breast = tested on: MCF7 breast
HT29 colon = tested on: HT29 colon
SK-OV-3 ovarian = tested on: SK-OV-3 ovarian

COc1ccc(/C(COc2ccc3c(c2)oc(=O)c2cc(OC)ccc23)=N/O)cc1
74.8 µM: TGI (HT29 colon)
> 100 µM: TGI (UACC-257 melanoma) | TGI (SF-268 CNS) | TGI (CAKI-1 renal) | TGI (COLO 205 colon) | TGI (NCI-H226 lung) | TGI (SW-620 colon) | TGI (OVCAR-3 ovarian) | TGI (MOLT-4 leukemia) | TGI (BT-549 breast) | TGI (NCI-H460 lung) | TGI (U251 CNS) | TGI (RXF 393 renal) | TGI (NCI-H23 lung) | TGI (EKVX NSCLC) | TGI (SK-MEL-2 melanoma) | TGI (RPMI-8226 leukemia) | TGI (KM12 colon) | TGI (UO-31 renal) | TGI (OVCAR-4 ovarian) | TGI (CCRF-CEM leukemia) | TGI (PC-3 prostate) | TGI (TK-10 renal) | TGI (SNB-19 CNS) | TGI (DU-145 prostate) | TGI (MDA-MB-231 breast) | TGI (SF-295 CNS) | TGI (M14 melanoma) | TGI (SK-MEL-28 melanoma) | TGI (HCC-2998 colon) | TGI (HS 578T breast) | TGI (786-0 renal) | TGI (K-562 leukemia) | TGI (OVCAR-5 ovarian) | TGI (MALME-3M melanoma) | TGI (SN12C renal) | TGI (OVCAR-8 ovarian) | TGI (A549 NSCLC) | TGI (HOP-62 NSCLC) | TGI (UACC-62 melanoma) | TGI (IGROV1 ovarian) | TGI (T-47D breast) | TGI (HCT-15 colon) | TGI (HCT-116 colon) | TGI (HOP-92 NSCLC) | TGI (MCF7 breast) | TGI (SK-OV-3 ovarian)
inactive: GI50 (UACC-257 melanoma) 24.8 µM | GI50 (SF-268 CNS) 8.33 µM | GI50 (CAKI-1 renal) 6.4 µM | GI50 (COLO 205 colon) 3.75 µM | GI50 (NCI/ADR-RES ovarian) 2.96 µM | GI50 (NCI-H226 lung) 41.7 µM | GI50 (SW-620 colon) 4.34 µM | GI50 (OVCAR-3 ovarian) 3.68 µM | GI50 (LOX IMVI melanoma) 8.12 µM | GI50 (MOLT-4 leukemia) 5.86 µM | GI50 (BT-549 breast) 15 µM | GI50 (NCI-H460 lung) 3.97 µM | GI50 (U251 CNS) 5.08 µM | GI50 (RXF 393 renal) 26.8 µM | GI50 (NCI-H23 lung) 20.5 µM | GI50 (EKVX NSCLC) 23.7 µM | GI50 (SK-MEL-2 melanoma) 15.2 µM | GI50 (RPMI-8226 leukemia) 5.44 µM | GI50 (KM12 colon) 4.67 µM | GI50 (SK-MEL-5 melanoma) 4.27 µM | GI50 (UO-31 renal) 17.1 µM | GI50 (OVCAR-4 ovarian) 24.7 µM | GI50 (CCRF-CEM leukemia) 8.05 µM | GI50 (PC-3 prostate) 7.28 µM | GI50 (TK-10 renal) 8.14 µM | GI50 (SNB-19 CNS) 4.34 µM | GI50 (DU-145 prostate) 29.2 µM | GI50 (MDA-MB-231 breast) 10.8 µM | GI50 (SF-295 CNS) 6.2 µM | GI50 (M14 melanoma) 4.29 µM | GI50 (SK-MEL-28 melanoma) 4.86 µM | GI50 (HCC-2998 colon) 7.64 µM | GI50 (HS 578T breast) 10.6 µM | GI50 (A498 renal) 3.22 µM | GI50 (786-0 renal) 14.8 µM | GI50 (K-562 leukemia) 5.36 µM | GI50 (SF-539 CNS) 8.33 µM | GI50 (OVCAR-5 ovarian) > 100 µM | GI50 (MALME-3M melanoma) 65.7 µM | GI50 (SN12C renal) 13.6 µM | GI50 (OVCAR-8 ovarian) 11.4 µM | GI50 (A549 NSCLC) 7.41 µM | GI50 (HOP-62 NSCLC) 8.86 µM | GI50 (UACC-62 melanoma) 3.94 µM | GI50 (SNB-75 CNS) 2.73 µM | GI50 (IGROV1 ovarian) 4.87 µM | GI50 (NCI-H522 lung) 3.55 µM | GI50 (T-47D breast) 6.9 µM | GI50 (HCT-15 colon) 5.16 µM | GI50 (HCT-116 colon) 4.18 µM | GI50 (HOP-92 NSCLC) 80.9 µM | GI50 (MCF7 breast) 4.16 µM | GI50 (HT29 colon) 3.72 µM | GI50 (SK-OV-3 ovarian) 37.4 µM
67.2 µM: TGI (LOX IMVI melanoma)
9.98 µM: TGI (SNB-75 CNS)
9.76 µM: TGI (NCI/ADR-RES ovarian)
51.3 µM: TGI (SF-539 CNS)
69.4 µM: TGI (SK-MEL-5 melanoma)
19.1 µM: TGI (NCI-H522 lung)
52.2 µM: TGI (A498 renal)
